Source: publication PMC9511441, “Semisynthetic teicoplanin derivatives with dual antimicrobial activity against SARS-CoV-2 and multiresistant bacteria” (Scientific Reports, 2022)
Like-named read-outs stand apart in the source and are kept apart here.

Assays:
SARS-CoV-2 pseudovirus [1] = assay: microbe, parasite or virus in culture; format: cell-based; conditions: Vero cells, luciferase signal, mean ± SEM of 3 tests, read-out: EC50, inhibition of SARS-CoV-2 pseudovirus entry in Vero cells
SARS-CoV-2 pseudovirus [2] = assay: microbe, parasite or virus in culture; format: cell-based; conditions: A549-AT cells (ACE2 and TMPRSS2), luciferase signal, mean ± SEM of 3 tests, read-out: EC50, inhibition of SARS-CoV-2 pseudovirus entry in A549-AT cells
[3] = Severe acute respiratory syndrome-related coronavirus

Structure (SMILES): CN(C)C(=O)COC(=O)Cc1ccc(OC(=O)c2ccc(NC(=N)N)cc2)cc1 [Camostat, camostat, reference compound]
- EC50 (SARS-CoV-2 pseudovirus [1]; [3]): > 20000 nM
- EC50 (SARS-CoV-2 pseudovirus [2]; [3]): 490 ± 50 nM

Structure (SMILES): CCOC(=O)[C@H]1O[C@@H]1C(=O)N[C@@H](CC(C)C)C(=O)NCCC(C)C [Compound E64d, reference compound]
- EC50 (SARS-CoV-2 pseudovirus [1]): 1300 ± 1200 nM
- EC50 (SARS-CoV-2 pseudovirus [2]): > 20000 nM
